Reference: patent publication US11083725B2 (priority 2014, dated 2021)

System: NHBE cells
Assay: Biolog metabolic array: substrate use by NHBE cells with or without CA09 infection
Type: cell-based, human
Conditions: for Substrate use, 590 nm absorbance normalized to zero hour, 1 hr: Biolog PMM2, 1 hr; for Substrate use, 590 nm absorbance normalized to zero hour, 5 hr: Biolog PMM2, 5 hr; for Substrate use, 590 nm absorbance normalized to zero hour, 7 hr: Biolog PMM2, 7 hr
[1] = Control (uninfected) NHBE cells
[2] = Virus (CA09-infected NHBE cells, MOI 1)
[3] = Virus: CA09-infected NHBE cells, MOI 1, Biolog PMM2
[4] = Virus (CA09-infected, MOI 1) NHBE cells

| SMILES | 590 nm absorbance normalized to zero hour (substrate use), 1 hr [1] | 590 nm absorbance normalized to zero hour (substrate use), 2 hr [1] | 590 nm absorbance normalized to zero hour (substrate use), 3 hr [1] | 590 nm absorbance normalized to zero hour (substrate use), 4 hr [1] | 590 nm absorbance normalized to zero hour (substrate use), 6 hr [1] | 590 nm absorbance normalized to zero hour (substrate use), 8 hr [1] | 590 nm absorbance normalized to zero hour (substrate use), 9 hr [1] | 590 nm absorbance normalized to zero hour (substrate use), 10 hr [1] | 590 nm absorbance normalized to zero hour (substrate use), 11 hr [1] | Substrate use, 590 nm absorbance normalized to zero hour, 1 hr [1] | Substrate use, 590 nm absorbance normalized to zero hour, 5 hr [1] | Substrate use, 590 nm absorbance normalized to zero hour, 7 hr [1] | 590 nm absorbance normalized to zero hour (substrate use), 1 hr [3] | 590 nm absorbance normalized to zero hour (substrate use), 2 hr [3] | 590 nm absorbance normalized to zero hour (substrate use), 3 hr [3] | 590 nm absorbance normalized to zero hour (substrate use), 4 hr [3] | 590 nm absorbance normalized to zero hour (substrate use), 5 hr [3] | 590 nm absorbance normalized to zero hour (substrate use), 6 hr [3] | 590 nm absorbance normalized to zero hour (substrate use), 7 hr [3] | 590 nm absorbance normalized to zero hour (substrate use), 8 hr [3] | other results |
| --- | --- | --- | --- | --- | --- | --- | --- | --- | --- | --- | --- | --- | --- | --- | --- | --- | --- | --- | --- | --- | --- |
| CC(=O)C(C)O (stereo not shown) [3-Hydroxy 2-Butanone] | 1.49 | 1.75 | 1.64 | 1.71 | 0.48 | 1.86 | 7.44 | 7.39 | 2.14 | 1.49 | 2.01 | 1.80 | 1.24 | 1.65 | 2.42 | 2.37 | 2.39 | 2.28 | 2.37 | 2.01 | 590 nm absorbance normalized to zero hour (substrate use), 1 hr [2]: 1.24; 590 nm absorbance normalized to zero hour (substrate use), 2 hr [2]: 1.65; 590 nm absorbance normalized to zero hour (substrate use), 3 hr [2]: 2.42; 590 nm absorbance normalized to zero hour (substrate use), 4 hr [2]: 2.37; 590 nm absorbance normalized to zero hour (substrate use), 5 hr [2]: 2.39; 590 nm absorbance normalized to zero hour (substrate use), 6 hr [2]: 2.28; 590 nm absorbance normalized to zero hour (substrate use), 7 hr [2]: 2.37; 590 nm absorbance normalized to zero hour (substrate use), 8 hr [2]: 2.01; 590 nm absorbance normalized to zero hour (substrate use), 9 hr [2]: 2.18; 590 nm absorbance normalized to zero hour (substrate use), 10 hr [2]: 2.16; 590 nm absorbance normalized to zero hour (substrate use), 11 hr [2]: 2.35; 590 nm absorbance normalized to zero hour (substrate use), 9 hr [3]: 2.18; 590 nm absorbance normalized to zero hour (substrate use), 10 hr [3]: 2.16; 590 nm absorbance normalized to zero hour (substrate use), 11 hr [3]: 2.35 |
| CC(=O)CC(=O)O [Acetoacetic Acid] | 1.24 | 1.37 | 2.22 | 2.13 | 0.39 | 1.52 | 1.66 | 1.49 | 2.20 | 1.24 | 2.15 | 1.53 | 1.26 | 1.40 | 1.48 | 1.54 | 1.64 | 1.67 | 1.71 | 1.74 | 590 nm absorbance normalized to zero hour (substrate use), 1 hr [4]: 1.26; 590 nm absorbance normalized to zero hour (substrate use), 2 hr [4]: 1.40; 590 nm absorbance normalized to zero hour (substrate use), 3 hr [4]: 1.48; 590 nm absorbance normalized to zero hour (substrate use), 4 hr [4]: 1.54; 590 nm absorbance normalized to zero hour (substrate use), 5 hr [4]: 1.64; 590 nm absorbance normalized to zero hour (substrate use), 6 hr [4]: 1.67; 590 nm absorbance normalized to zero hour (substrate use), 7 hr [4]: 1.71; 590 nm absorbance normalized to zero hour (substrate use), 8 hr [4]: 1.74; 590 nm absorbance normalized to zero hour (substrate use), 9 hr [4]: 1.81; 590 nm absorbance normalized to zero hour (substrate use), 10 hr [4]: 1.74; 590 nm absorbance normalized to zero hour (substrate use), 11 hr [4]: 1.81; 590 nm absorbance normalized to zero hour (substrate use), 9 hr [3]: 1.81; 590 nm absorbance normalized to zero hour (substrate use), 10 hr [3]: 1.74; 590 nm absorbance normalized to zero hour (substrate use), 11 hr [3]: 1.81 |
| Nc1ncnc2c1ncn2[C@@H]1O[C@H](CO)[C@@H](O)[C@H]1O [Adenosine] | 2.85 | 1.34 | 1.67 | 1.86 | 2.50 | 3.10 | 3.78 | 3.46 | 3.32 | 2.85 | 2.21 | 2.97 | 1.39 | 1.23 | 1.60 | 1.77 | 1.96 | 2.16 | 2.38 | 2.56 | 590 nm absorbance normalized to zero hour (substrate use), 1 hr [2]: 1.39; 590 nm absorbance normalized to zero hour (substrate use), 2 hr [2]: 1.23; 590 nm absorbance normalized to zero hour (substrate use), 3 hr [2]: 1.60; 590 nm absorbance normalized to zero hour (substrate use), 4 hr [2]: 1.77; 590 nm absorbance normalized to zero hour (substrate use), 5 hr [2]: 1.96; 590 nm absorbance normalized to zero hour (substrate use), 6 hr [2]: 2.16; 590 nm absorbance normalized to zero hour (substrate use), 7 hr [2]: 2.38; 590 nm absorbance normalized to zero hour (substrate use), 8 hr [2]: 2.56; 590 nm absorbance normalized to zero hour (substrate use), 9 hr [2]: 2.88; 590 nm absorbance normalized to zero hour (substrate use), 10 hr [2]: 2.56; 590 nm absorbance normalized to zero hour (substrate use), 11 hr [2]: 2.60; 590 nm absorbance normalized to zero hour (substrate use), 9 hr [3]: 2.88; 590 nm absorbance normalized to zero hour (substrate use), 10 hr [3]: 2.56; 590 nm absorbance normalized to zero hour (substrate use), 11 hr [3]: 2.60 |
| OC[C@@H](O)[C@@H](O)[C@@H](O)CO [Adonitol] | 0.57 | 0.78 | 0.93 | 0.98 | 1.35 | 1.40 | 1.55 | 1.43 | 1.46 | 0.57 | 1.16 | 1.28 | 0.21 | 0.26 | 0.29 | 0.31 | 0.34 | 0.36 | 0.38 | 0.39 | 590 nm absorbance normalized to zero hour (substrate use), 1 hr [2]: 0.21; 590 nm absorbance normalized to zero hour (substrate use), 2 hr [2]: 0.26; 590 nm absorbance normalized to zero hour (substrate use), 3 hr [2]: 0.29; 590 nm absorbance normalized to zero hour (substrate use), 4 hr [2]: 0.31; 590 nm absorbance normalized to zero hour (substrate use), 5 hr [2]: 0.34; 590 nm absorbance normalized to zero hour (substrate use), 6 hr [2]: 0.36; 590 nm absorbance normalized to zero hour (substrate use), 7 hr [2]: 0.38; 590 nm absorbance normalized to zero hour (substrate use), 8 hr [2]: 0.39; 590 nm absorbance normalized to zero hour (substrate use), 9 hr [2]: 0.42; 590 nm absorbance normalized to zero hour (substrate use), 10 hr [2]: 0.44; 590 nm absorbance normalized to zero hour (substrate use), 11 hr [2]: 0.43; 590 nm absorbance normalized to zero hour (substrate use), 9 hr [3]: 0.42; 590 nm absorbance normalized to zero hour (substrate use), 10 hr [3]: 0.44; 590 nm absorbance normalized to zero hour (substrate use), 11 hr [3]: 0.43 |
